Measured values taken from PubChem BioAssay (NCI).
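Five concentrations, 48 hours, 96-well plates. TGI is the concentration that stops growth completely.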

Tests used:
Assay in all cases: NCI-60 cell line screen, 48 h
OVCAR-3 ovarian = system: OVCAR-3 ovarian
NCI-H460 lung = system: NCI-H460 lung
A498 renal = system: A498 renal
SK-MEL-2 melanoma = system: SK-MEL-2 melanoma
MOLT-4 leukemia = system: MOLT-4 leukemia
SW-620 colon = system: SW-620 colon
NCI-H23 lung = system: NCI-H23 lung
HL-60(TB) leukemia = system: HL-60(TB) leukemia
HT29 colon = system: HT29 colon
U251 CNS = system: U251 CNS
ACHN renal = system: ACHN renal
MALME-3M melanoma = system: MALME-3M melanoma
HCT-15 colon = system: HCT-15 colon
K-562 leukemia = system: K-562 leukemia
EKVX NSCLC = system: EKVX NSCLC
MDA-MB-435 = system: MDA-MB-435
SK-OV-3 ovarian = system: SK-OV-3 ovarian
MCF7 breast = system: MCF7 breast
MDA-MB-231 breast = system: MDA-MB-231 breast

SMILES	TGI (OVCAR-3 ovarian)	TGI (NCI-H460 lung)	TGI (A498 renal)	TGI (SK-MEL-2 melanoma)	TGI (MOLT-4 leukemia)	TGI (SW-620 colon)	TGI (NCI-H23 lung)	TGI (HL-60(TB) leukemia)	TGI (HT29 colon)	TGI (U251 CNS)	TGI (ACHN renal)	TGI (MALME-3M melanoma)	TGI (HCT-15 colon)	TGI (K-562 leukemia)	TGI (EKVX NSCLC)	TGI (MDA-MB-435)	TGI (SK-OV-3 ovarian)	TGI (MCF7 breast)	TGI (MDA-MB-231 breast)
O=C(CC1C(=O)Nc2ccccc2S1(=O)=O)Nc1ccc(Cl)cc1 (configuration not stated)	39.4 µM	> 100 µM	> 100 µM	65.3 µM	37.6 µM	> 100 µM	> 100 µM	42.1 µM	> 100 µM	34 µM	71.9 µM	86.9 µM	> 100 µM	48.9 µM	–	–	–	–	–
S=C(N/N=C/c1ccccn1)N1CC2CCC(CC2)C1	13.9 µM	0.207 µM	2.93 µM	15.5 µM	–	14.5 µM	7.7 µM	0.143 µM	17.3 µM	4.6 µM	2.15 µM	11.4 µM	14.9 µM	–	7.05 µM	15.1 µM	5.7 µM	–	–
C(=C\C(Sc1ccccc1)c1ccccc1)/NNC1=NC(c2ccccc2)C(c2ccccc2)=NN1 (configuration not stated)	> 100 µM	> 100 µM	–	> 100 µM	77.9 µM	> 100 µM	> 100 µM	37.6 µM	35.4 µM	> 100 µM	> 100 µM	> 100 µM	> 100 µM	38 µM	> 100 µM	–	> 100 µM	–	–
CCc1c(CNC2=NCCN2)c(CC)c(CNC2=NCCN2)c(CC)c1CNC1=NCCN1	> 100 µM	> 100 µM	> 100 µM	> 100 µM	> 100 µM	> 100 µM	> 100 µM	–	> 100 µM	> 100 µM	> 100 µM	> 100 µM	> 100 µM	> 100 µM	> 100 µM	> 100 µM	> 100 µM	> 100 µM	–
COc1c(I)c(OC)c2c(c1I)O[C@@H]1OCC[C@H]21	91.7 µM	56.2 µM	86 µM	41.2 µM	54.4 µM	> 100 µM	> 100 µM	55.6 µM	> 100 µM	> 100 µM	> 100 µM	73.4 µM	> 100 µM	> 100 µM	> 100 µM	–	> 100 µM	–	–
COC(=O)CC(C(C(=O)OC)C(=O)OC)N1C(=O)OC(c2ccccc2)C1c1ccccc1 (configuration not stated)	> 100 µM	> 100 µM	> 100 µM	> 100 µM	> 100 µM	74.3 µM	> 100 µM	> 100 µM	> 100 µM	> 100 µM	> 100 µM	> 100 µM	> 100 µM	> 100 µM	> 100 µM	–	> 100 µM	–	–
O=c1oc2ccccc2c(O)c1C(c1ccc(-c2ccccc2)cc1)c1c(O)c2ccccc2oc1=O	58.7 µM	33.7 µM	> 100 µM	56.8 µM	> 100 µM	33.2 µM	56.8 µM	51.7 µM	38.3 µM	> 100 µM	60.4 µM	65 µM	40 µM	> 100 µM	> 100 µM	46.9 µM	–	–	48.8 µM
CC1(C)c2ccccc2N2O[C@@H]3C(=O)N(c4ccccc4)C(=O)[C@@H]3C21c1ccccc1 (some centres not stated)	> 100 µM	–	–	> 100 µM	> 100 µM	> 100 µM	> 100 µM	> 100 µM	> 100 µM	–	–	> 100 µM	> 100 µM	> 100 µM	> 100 µM	–	> 100 µM	–	–
O=[N+]([O-])c1cc(N=Nc2c(O)ccc3cc(S(=O)(=O)O)ccc23)c(O)c([N+](=O)[O-])c1	> 100 µM	–	–	> 100 µM	> 100 µM	> 100 µM	> 100 µM	> 100 µM	> 100 µM	> 100 µM	> 100 µM	> 100 µM	> 100 µM	> 100 µM	> 100 µM	> 100 µM	> 100 µM	–	> 100 µM
CC(=O)c1ccccc1NC(=O)C(=O)C(C(=O)c1ccccc1-c1ccccc1)C1OC(=O)c2ccccc21 (configuration not stated)	48.1 µM	35.3 µM	38.2 µM	40.5 µM	93 µM	86.5 µM	31 µM	81.2 µM	56.1 µM	30.3 µM	51.2 µM	34.3 µM	34.9 µM	> 100 µM	65 µM	–	> 100 µM	–	–
CC(=O)NNc1nc(C)c(C(=O)NNC(=O)C(=O)Nc2c([N+](=O)[O-])ccc(C)c2C)s1	> 100 µM	> 100 µM	> 100 µM	> 100 µM	> 100 µM	> 100 µM	> 100 µM	> 100 µM	> 100 µM	> 100 µM	> 100 µM	> 100 µM	> 100 µM	> 100 µM	> 100 µM	–	–	–	–
c1ccc(-c2c(-c3cccs3)[nH]c(-c3cccs3)c2-c2ccccn2)nc1	58.3 µM	63.5 µM	78.2 µM	–	38.3 µM	68.8 µM	> 100 µM	> 100 µM	30.3 µM	48.7 µM	> 100 µM	77.1 µM	40.4 µM	37 µM	65.4 µM	43.6 µM	51.3 µM	–	48.7 µM
CSc1ccc(NC(=O)C2c3[nH]c4ccccc4c3C3CCC(C(C)(C)C)CC3C2C(=O)O)cc1 (configuration not stated)	–	–	35.4 µM	–	31.4 µM	32.1 µM	58.7 µM	23 µM	39.1 µM	31.8 µM	32 µM	46.8 µM	> 100 µM	> 100 µM	85.3 µM	–	37.3 µM	–	–
CC1(C)C(=O)C(C)(C)C1=NNC(N)=S	> 100 µM	> 100 µM	–	–	> 100 µM	> 100 µM	> 100 µM	> 100 µM	> 100 µM	> 100 µM	> 100 µM	> 100 µM	> 100 µM	> 100 µM	–	–	> 100 µM	–	–
N#Cc1ccc(Oc2ccccc2)cc1C#N	> 100 µM	> 100 µM	> 100 µM	> 100 µM	> 100 µM	–	> 100 µM	> 100 µM	> 100 µM	> 100 µM	> 100 µM	> 100 µM	43.3 µM	> 100 µM	> 100 µM	–	> 100 µM	–	–
